For orientation: IC50 means the concentration at which inhibition is half-maximal. By melting point is commonly meant the temperature of the solid-liquid transition.

We go through 7 compounds from PMC11243327, “Design, Synthesis, Antitumor, and Antiplasmodial Evaluation of New 7-Chloroquinoline–Benzimidazole Hybrids” (Molecules, 2024).

Series [1] has as its system MRC-5 (human fetal lung fibroblasts). Further details: method as in PMID 36677600. As to conditions: previously published result, ref [19]; cited from earlier work.
Series [2] deals with HeLa (human cervical adenocarcinoma). The conditions noted are these: previously published result, cited from earlier work.
In series [3] the test system is CaCo-2 (human colorectal adenocarcinoma). As to conditions: previously published result, cited from earlier work.
Series [4] relates to THP-1 (acute monocytic leukemia). Further details: method as in PMID 36677600. The conditions noted are these: previously published result, ref [19]; cited from earlier work.
The test system of series [5] is HuT78 (T-cell lymphoma). Further details: method as in PMID 36677600. As to conditions: previously published result, ref [19]; cited from earlier work.
In series [6] the test system is HL-60 (acute promyelocytic leukemia). Further details: method as in PMID 36677600. As to conditions: previously published result, ref [19]; cited from earlier work.
In series [7] the test system is MRC-5 (human fetal lung fibroblasts). Nature of the series: Antiproliferative MTT assay, MRC-5. It is filed as cell-based. The conditions noted are these: Homo sapiens, MRC5, non-tumor cell line, 72 h, mean ± SD of three experiments. The procedure: (§1) The effect of the new synthesized compounds was tested on five human tumor cell lines, HeLa (human cervical adenocarcinoma; from ATCC), CaCo-2 (human colorectal adenocarcinoma), HL-60 (acute promyelocytic leukemia), HuT78 (T-cell lymphoma), and THP-1 (acute monocytic leukemia), as well as one non-tumor cell line, MRC-5 (human fetal lung fibroblasts). The MRC-5 cells were used between 24 and 26 passages. The cells were cultured in two different types of media: DMEM (Gibco Thermo Fisher Scinetific Inc., Runcorn, UK) and RPMI 1640 (Gibco, Thermo Fisher Scinetific Inc., UK). Both media were supplemented with 2 mM glutamine, fetal bovine serum (10%; heat inactivated), and antibiotics (100 U penicillin and 0.1 mg streptomycin). RPMI 1640 was additionally supplemented with 10 mM HEPES and 1 mM sodium pyruvate. Cells growing in a monolayer were cultured in DMEM, while cells growing in suspension were cultured in RPMI 1640. Cells were grown in humidified atmosphere under the conditions of 37 °C/5% CO2 gas in a CO2 incubator (IGO 150 CELLlife^TM, JOUAN, Thermo Fisher Scientific, Waltham, MA, USA).
(§2) Growth-inhibitory activity was assessed using a slightly modified procedure based on the National Cancer Institute’s protocol. Briefly, cells were seeded in 96-well microtiter plates and incubated for 24 h. They were then treated with 10^−7 to 10^−4 M concentrations of the tested compounds for an additional 72 h. After the treatment period, the effects of the tested compounds on the growth rate of the cells were examined using the MTT assay. Absorbance was measured at 595 nm using a microplate reader. The IC50 value, which represents a 50% inhibition of cell growth, and QC calculation were performed using the GraphPadPrism software (La Jolla, USA), v. 5.03. and Excel software, Office 365. The selectivity index was calculated according to the following formula: SI=IC50 value of normal cell line/IC50 value of cancer cell line
(§3) The effect of each concentration was analyzed by plotting the logarithm of the concentration of the evaluated compound against the corresponding percentage inhibition value using least squares.
(In general: Tetrazolium assays rely on reduction of a dye to a coloured formazan, in cell work by metabolically active cells.)

For series [8], the system named is THP-1 (acute monocytic leukemia). Nature of the series: Antiproliferative MTT assay, THP-1. It counts as cell-based, human. The conditions noted are these: Homo sapiens, THP-1, 72 h, mean ± SD of three experiments. The procedure: as §1, §2, §3
The test system of series [9] is HuT78 (T-cell lymphoma). Nature of the series: Antiproliferative MTT assay, Hut78. It counts as cell-based, human. The conditions noted are these: Homo sapiens, HuT78, 72 h, mean ± SD of three experiments. As to the method:
as §1, §2, §3

Series [10] has as its system HL-60 (acute promyelocytic leukemia). The series can be described thus: Antiproliferative MTT assay, HL-60. It is filed as cell-based, human. The conditions noted are these: Homo sapiens, HL-60, 72 h, mean ± SD of three experiments. As to the method:
as §1, §2, §3

Series [11] concerns P. falciparum 3D7 (CQ-susceptible), erythrocytic stage. The series can be described thus: Antiplasmodial HRP2 assay, Pf3D7. It is filed as cell-based, Plasmodium falciparum. The conditions noted are these: Plasmodium falciparum, 3D7, 72 h; chloroquine-sensitive strain, three days incubation, HRP2-ELISA, mean ± SD, n ≥ 2; read-out: IC50 Pf3D7. As to the method:
(§4) Method used to evaluate the antiplasmodial activity of quinoline–benzimidazole hybrids against two P. falciparum strains, chloroquine-sensitive (Pf3D7) and chloroquine-resistant (PfDd2), was previously described. […] Chloroquine was used as a positive control.
(§5) In brief, 96-well plates were pre-coated with the tested compounds at 1:3 dilution before ring-stage parasites were added to the complete culture medium at a hematocrit of 1.5% and a parasitemia of 0.05%. […] All compounds were analyzed in duplicate in at least two independent experiments. The IC50 was determined by nonlinear regression analysis of the logarithmic concentration-response curves using the drc package v3.0-1 of R v4.1.0 [56].

For series [12], the system named is P. falciparum Dd2 (multiresistant), erythrocytic stage. The series can be described thus: Antiplasmodial HRP2 assay, PfDd2. It counts as cell-based, Plasmodium falciparum. The conditions noted are these: Plasmodium falciparum, DD2, 72 h; chloroquine-resistant strain, three days incubation, HRP2-ELISA, mean ± SD, n ≥ 2; read-out: IC50 PfDd2. The procedure:
as §4, §5

In series [13] the test system is HeLa (human cervical adenocarcinoma). The series can be described thus: Antiproliferative MTT assay, HeLa. It is filed as cell-based. As to conditions: Homo sapiens, HeLa, 72 h, mean ± SD of three experiments. The procedure: as §1, §2, §3
The subject of series [14] is CaCo-2 (human colorectal adenocarcinoma). Nature of the series: Antiproliferative MTT assay, CaCo-2. The conditions noted are these: Homo sapiens, Caco-2, 72 h, mean ± SD of three experiments. It counts as cell-based. The procedure:
as §1, §2, §3

Series [15] in a line: Antiproliferative MTT assay, whole panel of cell lines. It is filed as cell-based. As to conditions: human, range over the cell lines tested, read-out: IC50 (cytotoxicity) across non-tumor and tumor cell lines. As to the method:
as §1, with “Cells growing in a monolayer were cultured in DMEM, while cells growing in suspension were cultured in RPMI 1640. Cells were grown in humidified atmosphere under the conditions of 37 °C/5% CO2 gas in a CO2 incubator (IGO 150 CELLlife^TM, JOUAN, Thermo Fisher Scientific, Waltham, MA, USA).” left out
Growth-inhibitory activity was assessed using a slightly modified procedure based on the National Cancer Institute’s protocol. […] Absorbance was measured at 595 nm using a microplate reader. […] The selectivity index was calculated according to the following formula: SI=IC50 value of normal cell line/IC50 value of cancer cell line
as §3

Read-outs that look alike come from different tables or passages of the source.

`O=c1[nH]cc(F)c(=O)[nH]1` [Compound 5-FU, 5-fluorouracil]: the IC50 in [1] is 54100 nM; in series [2] (ref [19]), 8200 nM; in series [3] (ref [19]) it was 5900 nM; in series [4], more than 100000 nM; in the series with HuT78 (T-cell lymphoma) [5], more than 100000 nM; in series [6], 76400 nM.
Turning to `N=C(NC1CCCC1)c1ccc2nc(-c3ccc(OCCNc4ccnc5cc(Cl)ccc45)cc3)[nH]c2c1` [Compound 10d], the IC50 in series [7] is 99200 ± 8300 nM; in series [8], more than 100000 nM; in the series on HuT78 (T-cell lymphoma) [9], 92000 ± 6100 nM; in [10], more than 100000 nM; in [11], 58.5 ± 5.9 nM; in series [12], 36.9 ± 17.7 nM. Besides, the IC50 in [2] (ref [18]) and in [3] (ref [18]) was more than 100000 nM each time.
For the compound `COc1ccc2nc(-c3ccc(OCCCNc4ccnc5cc(Cl)ccc45)c(Br)c3)[nH]c2c1` [Compound 14c, N-{[2-bromo-4-(5(6)-methoxy-1H-benzo[d]imidazole-2-yl)phenoxy]propyl}-7-chloroquinolin-4-amine], the melting point was 230 °C (dec.). In addition, half-maximal inhibition in [7] (IC50) was put at 400 ± 100 nM. Further, in [13], the IC50 turned out to be 800 ± 700 nM. This compound registered an IC50 in series [14] of 1600 ± 900 nM. Also, the IC50 in series [8] amounted to 5200 ± 1800 nM. In the series with HuT78 (T-cell lymphoma) [9], this compound displayed an IC50 of 600 ± 100 nM. The IC50 in [10] worked out at 300 ± 100 nM. In series [11], the IC50 is 11.4 ± 4 nM. Moreover, the IC50 in [12] was 11.8 ± 3.2 nM.
`COc1cc(-c2nc3ccccc3[nH]2)ccc1OCCCNc1ccnc2cc(Cl)ccc12` [Compound 15a, N-{[4-(1H-benzo[d]imidazole-2-yl)-2-methoxyphenoxy]propyl}-7-chloroquinolin-4-amine] displayed a melting point of 179 to 181 °C. The compound also came in with a half-inhibitory concentration (IC50) in series [7] of 300 ± 100 nM. This compound also registered an IC50 in series [13] of 400 ± 100 nM. This compound registered an IC50 in series [14] of 800 ± 100 nM. Moreover, in [8], the IC50 was 2200 ± 500 nM. In addition, 1500 ± 300 nM corresponded to half-maximal inhibition in the series with HuT78 (T-cell lymphoma) [9] (IC50). In [10], this compound yielded an IC50 of 400 ± 100 nM. In addition, in [11], the IC50 was 4.4 ± 0.3 nM. Also, the IC50 in series [12] amounted to 11.2 ± 0.5 nM.
`COc1cc(-c2nc3ccc(Cl)cc3[nH]2)ccc1OCCCNc1ccnc2cc(Cl)ccc12` [Compound 15b, 7-chloro-N-{[4-(5(6)-chloro-benzo[d]imidazole-2-yl)-2-methoxyphenoxy]propyl}quinolin-4-amine] displayed a melting point of 190 to 192 °C. The compound also yielded an IC50 in series [7] of 300 nM. The compound also registered an IC50 in series [13] of 300 ± 100 nM. For the same compound, the midpoint of inhibition in series [14], the IC50, lay at 1100 ± 600 nM. In series [8], this compound displayed an IC50 of 2500 ± 300 nM. The compound further gave an IC50 in the series on HuT78 (T-cell lymphoma) [9] of 700 ± 400 nM. Further, the IC50 in series [10] came out at 200 ± 100 nM. Besides, the IC50 in series [11] was 4.7 ± 1.5 nM. For the same compound, the IC50 in series [12] is 5.2 ± 0.5 nM.
Turning to `COc1ccc2nc(-c3ccc(OCCCNc4ccnc5cc(Cl)ccc45)c(OC)c3)[nH]c2c1` [Compound 15c, 7-chloro-N-{[4-(5(6)-methoxy-benzo[d]imidazole-2-yl)-2-methoxyphenoxy]propyl}quinolin-4-amine], the melting point is 220 °C (dec.). The same compound registered a half-maximal inhibitory concentration (IC50) in series [7] of 700 ± 600 nM. In [13], this compound had an IC50 of 1200 ± 600 nM. This compound also registered an IC50 in series [14] of 1500 ± 300 nM. In series [8], this compound returned an IC50 of 2200 ± 300 nM. Also, the IC50 in the series with HuT78 (T-cell lymphoma) [9] was determined as 700 ± 600 nM. The compound also registered an IC50 in [10] of 200 nM. Further, the IC50 in series [11] amounted to 6.9 ± 1.7 nM. Also, the IC50 in [12] was determined as 16.5 ± 5.7 nM.
On to `COc1cc(-c2nc3ccc(C(=N)NC4CCCC4)cc3[nH]2)ccc1OCCCNc1ccnc2cc(Cl)ccc12` [Compound 15d], for which the IC50 in [7] was 95200 ± 9700 nM; in series [13] it was more than 100000 nM; in [14], more than 100000 nM; in series [8], 29600 ± 300 nM; with HuT78 (T-cell lymphoma) [9], 12800 ± 5500 nM; in series [10], 19500 ± 1100 nM. Further, the IC50 in series [11] is 28.7 ± 9.4 nM; in series [12], 22.9 ± 4.3 nM. Moreover, the IC50 at 72 h in series [15] was 12800 to 100000 nM.
